# Measurements taken from patent publication US20240424119A1, “USE OF POLYPEPTIDE IN RESISTANCE TO ADDICTION AND RELAPSE THEREOF, AND COMPLEX AND POLYPEPTIDE” (SHENZHEN CHENYANG BIOLOGICAL TECHNOLOGY CO., LTD, priority 2021, published 2024).
# No end group written: not given here.
# B1: IL3 region of D2R: GST fusion protein containing the IL3 region of D2R (K211-Q373) (protein)
# chain: KIYIVLRRRRKRVNTKRSSRAFRAHLRAPLKGNCTHPEDMKLCTVIMKSNGSFPVNRRRVEAARRAQELEMEMLSSTSPPERTRYSPIPPSHHQLTLPDPSHHGLHSTPDSPAKPEKNGHAKDHPKIAKIFEIQTMPNGKTRTSLKTMSRRKLSQQKEKKATQ
# modifications: left off: a dimerising Fc or GST; large carriers; small tags and cut ends
# Columns and labels:
# [1] = system: alcohol-induced behavioral sensitization in mice; test: Effects of different polypeptides on alcohol-induced behavioral sensitization in mice; assay type: in vivo; conditions: 3 nmol/g i.p. 1 hour before alcohol (2.2 g/kg) on third day after training; TAT fusion peptides; n=10
# Procedure: (§1) Then, the C-terminal of Pep1 to Pep5 was fused to the N-terminal of TAT respectively to obtain fusion peptides which could penetrate the blood-brain barrier.
# In order to verify that the polypeptide of the invention is also effective against alcohol-induced addiction, the following tests were carried out:
# The training period lasted for 10 days, during which mice were administered alcohol (2.2 g/kg) or normal saline every other day and then immediately tested for 15 minutes. On the third day after training, 1 hour before alcohol administration, different polypeptides of Example 9 (3 nmol/g) were administered to mice via intraperitoneal injection (10 ml/kg) for drug induction, and a testing was carried out, and the results were shown in FIG. 19.
# [2] = system: morphine-induced CPP in mice; test: Effects of different polypeptides on morphine-induced CPP in mice; assay type: in vivo; conditions: 3 nmol/g i.p. on Day 10, recorded on the second day after administration; TAT fusion peptides; n=12
# Procedure: The CPP equipment used in the experiment has two equal-volume chambers (15 cm×15 cm×37 cm) with a movable door in the middle. Mice could freely shuttle between chambers during testing, or were limited to one side of the chamber during training. The interior of one chamber is black and the bottom is striped, while the other chamber is white and the bottom is latticed. All behavioral tests, including distance and time of activity, were recorded by a camera and calculated using the SMART Video Tracking System (Version 2.5; Panlab Technology for Biosearch, Spain).
# On Day 1, mice were allowed to explore two chambers freely for 15 min without any treatment (before testing). On Day 2, 4, 6 and 8, control group (saline group) and model group (morphine group) received saline (10 mL/kg) and morphine (10 mg/kg), respectively. TAT group (3 nmol/g) and TAT-D2R-KT group (3 nmol/g) were injected (intraperitoneally, 10 ml/kg body weight) 1 hour before morphine injection. After injection, all mice were trained in the white chamber for 40 min. On Day 3, 5, 7 and 9, all mice were given normal saline, and then immediately placed in the black chamber for 40 min; on Day 10, after all mice explored freely for 15 min, the test ended, and the CPP scores (moving duration of mice) were shown in FIG. 6.
# as §1
# Mice were given morphine (1 mg/kg) or normal saline for 8 days, and different polypeptides (3 nmol/g) of Example 9 were administered to mice via intraperitoneal injection (10 ml/kg) on Day 10; the expression of morphine-induced CPP was recorded according to the CPP experimental method in Example 5 on the second day after administration, and the results were shown in FIG. 17.
# [3] = system: cocaine-induced behavioral sensitization in mice; test: Effects of different polypeptides on cocaine-induced behavioral sensitization in mice; assay type: in vivo; conditions: 3 nmol/g i.p. 1 hour before cocaine (15 mg/kg) on sixth day of pause; TAT fusion peptides; n=10
# Procedure: as §1
# In order to verify that the polypeptide of the invention is also effective against cocaine-induced addiction, the following tests were carried out:
# Mice were given cocaine (15 mg/kg) or normal saline and then tested for 30 minutes, repeated for 5 days, and followed by a 5-day pause of administration. On the sixth day of the pause, 1 hour before cocaine administration, different polypeptides of Example 9 (3 nmol/g) were administered to mice via intraperitoneal injection (10 ml/kg) for drug induction, and a testing was carried out, and the results were shown in FIG. 18.
# [4] = target: T1, D2R/NR2B complex (Mus musculus, UniProt Q01097); test: Co-immunoprecipitation of hippocampus tissue from polypeptide-treated CPP mice and BS mice; assay type: in vivo
# T1 construct: Co-immunoprecipitation was performed using a protein sample (100-500 μg protein) from hippocampus tissue; from tissue; host or cells: hippocampus tissue of CPP and BS mice treated in vivo
# Procedure: Co-immunoprecipitation was performed using a protein sample (100-500 μg protein) from hippocampus tissue. NR2B and D1R or D2R were precipitated using an anti-NR2B and D2R, D2R or NR2B and 25 μl protein A/G+agarose bead slurry (SantaCruz Biotechnology, sc-2001), respectively.
# The protein was then isolated on 8% SDS-PAGE gel and detected with a mouse antibody against NR2B and D2R. HRP-coupled secondary antibody and enhanced chemiluminescence method were used to detect the protein. Density analysis of bands was performed using image laboratory software.
# In order to verify the effect of KT polypeptide of D2R on the D2R/NR2B complex in vivo, the C terminal of the region (K211-T225) was fused to the N terminal of transduction domain of HIV-1-type Tat protein (as set forth in SEQ ID NO: 6, hereinafter referred to as TAT) to obtain a fusion protein which can permeate blood-brain barrier, named TAT-D2R-KT.
# CPP mice and BS mice were treated with TAT-D2R-KT respectively, and mice treated with TAT only were used as control (all treated by single intraperitoneal administration, 10 ml/kg body weight, medicament concentration 3 nmol/g). After 1 hour of treatment, analysis was performed according to the co-immunoprecipitation method in Example 1, and the results were shown in FIG. 4.
# [5] = target: T2, NR2B (Mus musculus, UniProt Q01097); test: GST-pulldown of NR2B from hippocampus extract by GST fusion proteins of D2R regions; assay type: binding; conditions: 500 μg hippocampus extract, overnight, 4° C.
# T2 construct: from tissue; host or cells: hippocampus extract
# Procedure: In order to search for the physical interaction site between D2R and NR2B, cDNA fragments of the CT region of D2R (T428-C443) and the third intracellular loop (IL3) region of D2R (K211-Q373) were first obtained via the D2R full-length cDNA clone (Genbank Accession No.: M29066.1). These fragments were subcloned to the BamH1/EcoR1 or BamH1/Xho1 site of a pGEX-4T-3 plasmid (YouBio, Item No: VT1255). Initiation methionine residue and termination codon were added as appropriate. All constructs were resequenced to confirm that splice fusion was achieved appropriately. The GST fusion protein containing the IL3 region of D2R (GST-D2R-IL3) and the GST fusion protein containing the CT region of D2R (GST-D2R-CT) were obtained by using E.coli BL21 viable cells (AlpalifeBio, Item No: KTSM104L) for expression and purifying them from bacterial lysate, wherein the specific positions of the coding sequences of IL3 region and CT region on D2R were shown in FIG. 2.
# 500 μg of dissolved hippocampus extract was diluted with 1×PBS/0.1% Triton X-100 and incubated overnight with 20 μl protein GST resin (TransGen Biotech, Item No: N21220, Beijing, China) saturated with GST protein only or with the prepared 15 µg GST fusion protein at 4° C. Beads were washed 1-8 times with 1×PBS/0.1% Triton X-100. Binding proteins were eluted with 2×loading buffer, separated by SDS-PAGE, and subjected to Western blot with respective antibodies thereof, and the results were shown in A of FIG. 3.
# Next, in order to further explore the interaction sequence/site between D2R and NR2B, the IL3 region was divided into KVC (K211-V270) region of D2R, ES (E271-S321) region of D2R and PQ (P322-Q373) region of D2R.
# According to the method in the present Example, a pulldown analysis was performed using a GST fusion protein containing the KVC region of D2R (GST-D2R-KVC), a GST fusion protein containing the ES region of D2R (GST-D2R-ES), and a GST fusion protein containing the PQ region of D2R (GST-D2R-PQ), and the results of Western blot were shown in B of FIG. 3.
# Further, the KVC region was divided into KT (K211-T225) region of D2R, KL (K226-L240) region of D2R, KV (K241-V255) region of D2R, and IV (1256-V270) region of D2R.
# According to the method in the present Example, a pulldown analysis was performed using a GST fusion protein containing the KT region of D2R (GST-D2R-KT), the GST fusion protein containing the KL region of D2R (GST-D2R-KL), a GST fusion protein containing the KV region of D2R (GST-D2R-KV), and a GST fusion protein containing the IV region of D2R (GST-D2R-IV), and the results of Western blot were shown in C of FIG. 3.
# [6] = target: binding of D2R to NR2B (Homo sapiens, UniProt Q13224); conditions: Liu et al., Neuron 52, 897-909, FIGS. 3M and 3N; cited from earlier work
# Chain of binding of D2R to NR2B (Q13224 27-1484): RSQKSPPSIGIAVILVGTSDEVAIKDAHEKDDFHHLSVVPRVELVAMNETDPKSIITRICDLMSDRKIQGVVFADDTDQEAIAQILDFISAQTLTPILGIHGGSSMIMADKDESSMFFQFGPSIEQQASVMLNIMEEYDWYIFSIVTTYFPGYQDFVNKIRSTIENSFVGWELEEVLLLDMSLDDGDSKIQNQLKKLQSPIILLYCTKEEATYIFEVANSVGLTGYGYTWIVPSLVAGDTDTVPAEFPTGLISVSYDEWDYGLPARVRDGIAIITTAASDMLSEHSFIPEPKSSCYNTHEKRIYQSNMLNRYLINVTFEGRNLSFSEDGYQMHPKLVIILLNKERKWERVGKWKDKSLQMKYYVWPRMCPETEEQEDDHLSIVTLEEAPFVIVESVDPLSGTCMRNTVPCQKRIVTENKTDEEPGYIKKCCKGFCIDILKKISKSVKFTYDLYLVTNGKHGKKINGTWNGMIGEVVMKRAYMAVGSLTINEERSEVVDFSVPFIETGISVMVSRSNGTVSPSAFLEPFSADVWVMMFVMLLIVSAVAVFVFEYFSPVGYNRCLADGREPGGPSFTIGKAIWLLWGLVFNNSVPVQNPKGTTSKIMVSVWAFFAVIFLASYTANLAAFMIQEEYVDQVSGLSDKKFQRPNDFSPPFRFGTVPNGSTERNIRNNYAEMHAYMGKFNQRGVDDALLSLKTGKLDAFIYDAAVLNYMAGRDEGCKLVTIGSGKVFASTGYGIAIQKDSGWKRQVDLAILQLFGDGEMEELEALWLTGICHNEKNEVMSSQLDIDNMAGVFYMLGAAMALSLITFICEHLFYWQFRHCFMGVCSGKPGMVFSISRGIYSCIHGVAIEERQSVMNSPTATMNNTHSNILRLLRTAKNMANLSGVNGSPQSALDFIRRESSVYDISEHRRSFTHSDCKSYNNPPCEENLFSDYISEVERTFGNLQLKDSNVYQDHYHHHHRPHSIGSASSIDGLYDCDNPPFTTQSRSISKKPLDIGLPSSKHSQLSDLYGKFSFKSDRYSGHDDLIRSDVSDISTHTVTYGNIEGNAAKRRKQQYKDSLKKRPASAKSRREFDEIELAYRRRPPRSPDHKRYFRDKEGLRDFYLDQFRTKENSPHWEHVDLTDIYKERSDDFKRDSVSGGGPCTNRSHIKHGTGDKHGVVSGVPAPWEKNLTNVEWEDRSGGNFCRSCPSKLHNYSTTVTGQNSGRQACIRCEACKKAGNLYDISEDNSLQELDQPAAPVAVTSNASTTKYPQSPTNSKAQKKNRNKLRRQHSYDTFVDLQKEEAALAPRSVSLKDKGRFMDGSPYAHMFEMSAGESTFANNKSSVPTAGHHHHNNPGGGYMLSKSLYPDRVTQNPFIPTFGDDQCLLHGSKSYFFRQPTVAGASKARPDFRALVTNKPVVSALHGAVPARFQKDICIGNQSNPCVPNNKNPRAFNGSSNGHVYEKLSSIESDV
# T2 sequence (Q01097 27-1482, other chains not shown): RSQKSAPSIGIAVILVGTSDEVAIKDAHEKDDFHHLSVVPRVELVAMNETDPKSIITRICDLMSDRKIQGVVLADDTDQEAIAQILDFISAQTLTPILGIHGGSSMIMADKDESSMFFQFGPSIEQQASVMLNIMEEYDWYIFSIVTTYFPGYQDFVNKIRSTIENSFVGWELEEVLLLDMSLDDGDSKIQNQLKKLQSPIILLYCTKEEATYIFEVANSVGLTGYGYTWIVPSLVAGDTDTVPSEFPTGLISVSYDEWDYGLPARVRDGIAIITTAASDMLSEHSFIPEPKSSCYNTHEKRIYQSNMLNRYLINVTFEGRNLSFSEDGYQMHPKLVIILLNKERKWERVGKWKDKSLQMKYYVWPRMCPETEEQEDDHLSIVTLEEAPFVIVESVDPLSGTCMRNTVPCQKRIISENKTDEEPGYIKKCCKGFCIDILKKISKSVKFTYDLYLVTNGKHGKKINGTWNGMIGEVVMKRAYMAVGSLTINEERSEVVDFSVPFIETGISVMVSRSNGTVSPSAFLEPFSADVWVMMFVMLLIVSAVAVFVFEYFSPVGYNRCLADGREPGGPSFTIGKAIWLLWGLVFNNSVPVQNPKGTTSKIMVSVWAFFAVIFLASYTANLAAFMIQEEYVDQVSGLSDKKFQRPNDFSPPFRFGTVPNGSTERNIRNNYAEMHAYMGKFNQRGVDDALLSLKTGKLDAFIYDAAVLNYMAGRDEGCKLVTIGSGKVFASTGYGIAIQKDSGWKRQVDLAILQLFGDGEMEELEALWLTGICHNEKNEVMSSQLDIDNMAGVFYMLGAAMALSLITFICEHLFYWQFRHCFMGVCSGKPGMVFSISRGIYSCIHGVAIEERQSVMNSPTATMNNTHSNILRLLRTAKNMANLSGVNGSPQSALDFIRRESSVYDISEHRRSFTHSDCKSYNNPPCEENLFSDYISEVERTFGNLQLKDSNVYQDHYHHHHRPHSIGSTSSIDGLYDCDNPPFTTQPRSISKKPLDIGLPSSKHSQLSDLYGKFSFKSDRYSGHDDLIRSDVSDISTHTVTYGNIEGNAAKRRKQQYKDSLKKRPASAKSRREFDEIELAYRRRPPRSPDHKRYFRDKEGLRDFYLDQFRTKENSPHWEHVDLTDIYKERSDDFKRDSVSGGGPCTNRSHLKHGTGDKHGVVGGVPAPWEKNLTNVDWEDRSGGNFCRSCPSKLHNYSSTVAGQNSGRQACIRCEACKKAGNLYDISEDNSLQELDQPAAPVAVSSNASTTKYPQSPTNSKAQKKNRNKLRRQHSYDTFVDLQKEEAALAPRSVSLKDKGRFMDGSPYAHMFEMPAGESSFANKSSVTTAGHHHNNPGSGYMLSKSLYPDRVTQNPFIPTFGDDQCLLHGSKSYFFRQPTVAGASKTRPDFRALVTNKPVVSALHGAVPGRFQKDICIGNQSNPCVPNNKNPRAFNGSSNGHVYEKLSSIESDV
# T1 sequence (Q01097 27-1482, other chains not shown): as above
Molecule,expression of sensitization behavior (alcohol-induced) [1],activity distance of morphine-CPP mice [2],expression of sensitization behavior (cocaine-induced) [3],"precipitation of NR2B by GST fusion protein (pulldown, Western blot) [5]",other results
"KIYIVLGGGRKRVNT [Pep4, variant with the mid-segment RRR mutated to GGG; tested fused to TAT]",failed to inhibit the expression of sensitization behavior,failed to significantly reduce the activity distance,failed to inhibit the expression of sensitization behavior,–,–
"KIYIVLRRRGGGVNT [Pep5, variant with the mid-segment RKR mutated to GGG; tested fused to TAT]",failed to inhibit the expression of sensitization behavior,failed to significantly reduce the activity distance,failed to inhibit the expression of sensitization behavior,–,–
"KIYIVLRRRRKRV [Pep3, variant of KT polypeptide, C-terminal truncated; tested fused to TAT]",significantly inhibited the expression of sensitization behavior,significantly reduced the activity distance,significantly inhibited the expression of sensitization behavior,–,–
"KIYIVLRRRRKRVNT [Pep1, KT polypeptide, K211-T225 of the IL3 region of D2R; tested in vivo fused to TAT]",significantly inhibited the expression of sensitization behavior,significantly reduced the activity distance,significantly inhibited the expression of sensitization behavior,–,"D2R/NR2B interaction in hippocampus tissue (co-immunoprecipitation) ([4]; CPP mice and BS mice, single intraperitoneal administration 3 nmol/g, 1 hour after treatment, TAT only as control): competitively disrupted the D2R/NR2B interaction; interaction between D2R and NR2B ([4]; summary statement of the inventors' finding, no conditions given): successfully reduced the interaction between D2R and NR2B"
"KL region of D2R: GST fusion protein containing the KL region of D2R (K226-L240) (KRSSRAFRAHLRAPL; also: GST fusion; UniProt P14416 226-240, looked up, fragment)",–,–,–,could not be precipitated,–
KT region of D2R: GST fusion protein containing the KT region of D2R (K211-T225) (KIYIVLRRRRKRVNT; also: GST fusion),–,–,–,precipitated with affinity,–
KVC region of D2R: GST fusion protein containing the KVC region of D2R (K211-V270) (KIYIVLRRRRKRVNTKRSSRAFRAHLRAPLKGNCTHPEDMKLCTVIMKSNGSFPVNRRRV; cysteine pairing not given here; also: GST fusion),–,–,–,precipitated with affinity,–
"P4: Liu et al. polypeptide of IL3 from D2R (1210-K226) lacking the motif TKRSSRAFRA (IKIYIVLRRRRKRVNTK; UniProt P14416 210-226, looked up, fragment) [Pep P4]",–,–,–,–,prevention of the binding of D2R to NR2B [6]: had no preventing effect
"YIVLRRRRKRVNT [Pep2, variant of KT polypeptide, N-terminal truncated; tested fused to TAT]",significantly inhibited the expression of sensitization behavior,significantly reduced the activity distance,significantly inhibited the expression of sensitization behavior,–,–
B1,–,–,–,precipitated with affinity,–
